Patent publication US20100160251A1, “IMIDAZO COMPOUNDS” (priority 2006, published 2010)

Test system: γδT lymphocyte
Assay: Induction of γδT lymphocyte proliferation, human peripheral blood cells, BrdU labelling after 3 days of culture
Format: cell-based
Description: The activity on γδT lymphocyte proliferation is tested in the following way: human peripheral blood cells are cultured in the presence of an RPMI-type culture medium supplemented with L-glutamine (2 mM), penicillin/streptomycin (50 μg/50 IU/ml) and foetal calf serum (10%). The C-glycoside derivatives are added at various concentrations (10 to 0.05 mM), along with phytohemagglutin (PHA at […]), a positive control for lymphocyte proliferation.

`CC(=O)C[C@H]1O[C@H](CO)[C@@H](O[C@@H]2O[C@H](CO)[C@H](O)[C@H](O)[C@H]2O)[C@H](O)[C@H]1O` [Compound 1, 1-(C-β-D-lactopyranosyl)propan-2-one] was tested, and the “% stimulation relative to the control” value (concentration 0.05 (mM)) was 100%, the “% stimulation relative to the control” value (concentration 0.1 (mM)) was 110% and the “% stimulation relative to the control” value (concentration 0.5 (mM)) was 82%. The “% stimulation relative to the control” value (concentration 1 (mM)) was 108%, the “% stimulation relative to the control” value (concentration 5 (mM)) was 169% and the “% stimulation relative to the control” value (concentration 10 (mM)) was 214%.
